According to patent publication US20070225246A1, “O-acetyl-ADP-ribose non-hydrolyzable analogs” (priority 2006, published 2007):
Where two headings read alike, the source gives them in different places.

Assays:
[1] = HPLC stability studies at physiological temperature and pH; format: physicochemical; settings: 500 μM in 50 mM Tris pH 7.5, 1 mM DTT, 37° C.
Protocol: To validate the installation of an N-acetyl as a non-hydrolyzable substitution, the stabilities of both 2′- and 3′-NAADPr were evaluated at physiological temperature and pH using conditions previously described (Borra et al., 2002, J. Biol. Chem. 277: 12632-12641). […] HPLC analysis of both 2′- and 3′-NAADPr using exact conditions indicated negligable decomposition (<1%) over 3 days and confirmed the stability of the acetyl funcitonality to spontaneous hydrolysis at physiological pH.
Reactions were carried out with both analogs (final concentration of 500 μM) in 50 mM Tris (pH 7.5 at 37° C.) containing 1 mM DTT. Samples were incubated at 37° C. over 3 days and four time points were collected (0, 24, 48, and 72 h). Each sample was quenched with H2O containing 0.05% TFA and analyzed by HPLC (analytical C18) using the method described in general procedures. Each trace was integrated (Shimadzu EZStart version 7.2.1 SP1) to determine peak area and analog percentage is shown in the following table 1. Both 2′- and 3′-NAADPr contained trace impurities at 12.9 and 12.5 min respectively and contributed to the observed degradation products visible at 23.3 min in each study.

YSA1 [2] = molecular target: T1, YSA1 (Saccharomyces cerevisiae, UniProt Q01976); assay: Nudix hydrolase hydrolysis by YSA1 (Michaelis-Menten); format: biochemical, yeast; settings: substrate 5-300 μM, YSA1 10 ng
T1 sequence (Q01976 1-231): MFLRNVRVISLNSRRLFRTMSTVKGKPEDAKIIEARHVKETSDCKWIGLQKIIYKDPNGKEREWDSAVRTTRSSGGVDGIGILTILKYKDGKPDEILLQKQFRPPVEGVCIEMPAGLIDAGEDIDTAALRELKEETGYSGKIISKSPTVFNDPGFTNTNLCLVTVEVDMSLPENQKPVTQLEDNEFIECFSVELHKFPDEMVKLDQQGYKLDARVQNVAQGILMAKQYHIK
Protocol: (§1) The Nudix hydrolases, mNudT5 and YSA1, and NudT9 are a family of ADPr metabolizing enzymes. […] Reaction mixtures containing ADPr (5-300 μM) were incubated with NudT9 (100 ng) or YSA1 (10 ng). Michaelis-Menten plots were generated for the hydrolysis of ADPr by NudT9 and YSA1. […] The hydrolysis of 2′- and 3′-NAADPr is evaluated using a protocol similar to that described by Rafty.

human macroH2A1.1 domain [3] = molecular target: T2, human macroH2A1.1 domain (Homo sapiens, UniProt O75367); assay: MacroH2A1.1 binding (calorimetry); settings: method similar to Kustatcher
Excerpt: (§2) MacroH2A1.1 is an atypical histone variant associated with heterochromatin and implicated in transcriptional repression. […] The splice-variant MacroH2A1.2 was also studied, but no binding of ADPr was observed. The binding of 2′- and 3′-NAADPr may be evaluated using a protocol similar to that described by Kustatcher.

NudT9 [4] = molecular target: T3, NudT9 (Homo sapiens, UniProt Q9BW91); assay: Nudix hydrolase hydrolysis by NudT9 (Michaelis-Menten); format: biochemical; settings: substrate 5-300 μM, NudT9 100 ng
T3 sequence (Q9BW91 47-350): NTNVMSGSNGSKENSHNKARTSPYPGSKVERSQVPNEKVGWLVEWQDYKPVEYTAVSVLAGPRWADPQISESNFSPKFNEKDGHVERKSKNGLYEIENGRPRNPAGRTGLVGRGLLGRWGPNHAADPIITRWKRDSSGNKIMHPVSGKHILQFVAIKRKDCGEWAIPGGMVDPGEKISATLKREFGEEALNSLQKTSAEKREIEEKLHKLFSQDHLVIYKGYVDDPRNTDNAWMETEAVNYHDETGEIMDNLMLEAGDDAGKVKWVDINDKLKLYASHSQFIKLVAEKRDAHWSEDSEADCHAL
Protocol: as §1

[5] = molecular target: splice-variant MacroH2A1.2 (Homo sapiens, UniProt O75367); assay: MacroH2A1.2 binding (calorimetry); settings: method similar to Kustatcher
Excerpt: as §2

YSA1 [6] = molecular target: T1, YSA1; settings: in vitro (Rafty et al., 2002); cited from earlier work
mNudT5 = mNudT5 (Mus musculus, UniProt Q9JKX6); settings: in vitro (Rafty et al., 2002); cited from earlier work
NudT9 [7] = molecular target: T3, NudT9; settings: in vitro (Rafty et al., 2002); cited from earlier work
human macroH2A1.1 domain [8] = molecular target: T2, human macroH2A1.1 domain; settings: calorimetry, Kustatcher et al., 2005; cited from earlier work
[9] = within 3 h, physiological temperature and pH (Borra et al., 2002); cited from earlier work

T2 sequence (O75367 184-367 limits assumed): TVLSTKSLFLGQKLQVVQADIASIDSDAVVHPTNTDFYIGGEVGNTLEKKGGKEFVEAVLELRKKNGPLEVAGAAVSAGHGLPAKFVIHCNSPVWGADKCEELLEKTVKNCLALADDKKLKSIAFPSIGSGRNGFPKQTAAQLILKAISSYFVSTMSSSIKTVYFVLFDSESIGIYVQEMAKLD
Chain of splice-variant MacroH2A1.2 (O75367 1-372 isoform O75367-1): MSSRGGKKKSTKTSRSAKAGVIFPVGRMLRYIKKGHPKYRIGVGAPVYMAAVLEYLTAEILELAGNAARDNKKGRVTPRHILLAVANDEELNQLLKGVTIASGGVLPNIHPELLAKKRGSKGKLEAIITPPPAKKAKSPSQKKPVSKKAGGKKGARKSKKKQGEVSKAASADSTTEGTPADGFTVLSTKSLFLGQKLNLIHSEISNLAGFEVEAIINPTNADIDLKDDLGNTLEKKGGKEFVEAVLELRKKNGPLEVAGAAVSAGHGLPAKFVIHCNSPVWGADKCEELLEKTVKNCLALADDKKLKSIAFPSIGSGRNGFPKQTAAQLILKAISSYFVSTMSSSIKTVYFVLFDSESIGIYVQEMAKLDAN
Chain of mNudT5 (Q9JKX6 whole entry): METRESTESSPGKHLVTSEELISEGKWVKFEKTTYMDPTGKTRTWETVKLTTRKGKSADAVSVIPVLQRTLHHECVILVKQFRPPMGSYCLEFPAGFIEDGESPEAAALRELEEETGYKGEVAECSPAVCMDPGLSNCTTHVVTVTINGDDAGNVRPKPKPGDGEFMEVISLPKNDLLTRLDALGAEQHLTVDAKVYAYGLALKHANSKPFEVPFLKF

3′-N-Acetyl-ADP-ribose [3′-NAADPr]
analog percentage (HPLC peak area) ([1]; 0 h): 95.7% | analog percentage (HPLC peak area) ([1]; 24 h): 98.2% | analog percentage (HPLC peak area) ([1]; 48 h): 98.0% | analog percentage (HPLC peak area) ([1]; 72 h): 98.0%

CC(=O)NC1C(O)O[C@H](COP(=O)(O)OP(=O)(O)OC[C@H]2O[C@@H](n3cnc4c(N)ncnc43)C(O)C2O)[C@@H]1O (stereo partly drawn) [2′-NAADPr, 2′-N-Acetyl-ADP-ribose]
analog percentage (HPLC peak area) ([1]; 0 h): 98.7% | analog percentage (HPLC peak area) ([1]; 24 h): 98.7% | analog percentage (HPLC peak area) ([1]; 48 h): 98.2% | analog percentage (HPLC peak area) ([1]; 72 h): 98.3%

Nc1ncnc2c1ncn2[C@@H]1O[C@H](COP(=O)(O)OP(=O)(O)OC[C@H]2OC(O)[C@H](O)[C@@H]2O)[C@@H](O)[C@H]1O (stereo partly drawn) [ADPr, ADP-ribose]
Km (YSA1 [2]): 39.9 µM | kcat (YSA1 [2]): 6.5 s⁻¹ | Kd (human macroH2A1.1 domain [3]): 2.4 µM | enthalpy (human macroH2A1.1 domain [3]): -15.4 kcal/mol | Km (NudT9 [4]): 23.9 µM | kcat (NudT9 [4]): 9.3 s⁻¹ | binding [5]: no binding

O-Acetyl-ADP-ribose [OAADPr]
hydrolysis to AMP and acetylated ribose 5′-phosphate (YSA1 [6]): efficiently hydrolyze | hydrolysis to AMP and acetylated ribose 5′-phosphate (mNudT5): efficiently hydrolyze | hydrolysis efficiency, less efficient as compared to ADPr (NudT9 [7]): 500 fold | Kd (human macroH2A1.1 domain [8]): ~2 µM | enthalpy (human macroH2A1.1 domain [8]): -17.8 kcal/mol | hydrolyzed to ADPr [9]: approximately 18%
